# Measurements taken from paper PMC10819809 (Microorganisms, 2024).
# Square brackets hold non-standard residues; d marks the D form. Peptide text beside a SMILES is read from it.
# Tested on: multi-drug resistant (MDR) strain (MDR-TB, clinical isolate)
# Conditions: microdilution broth, 96-well, 2 × 10^5 CFU/mL, 37 °C 14 days, resazurin 48 h; conducted twice with three technical replicates each
row,Compound,"MIC in µg/mL, MDR-TB [µg/mL]"
1,CC[C@@H](C)[C@@H](NC(=O)[C@@H](CCCCN)NC(=O)[C@H](N)Cc1c[nH]c2ccccc12)C(=O)N[C@@H](C(=O)N[C@H](Cc1ccccc1)C(=O)N[C@H](Cc1c[nH]c2ccccc12)C(=O)N[C@H](Cc1c[nH]c2ccccc12)C(=O)N[C@H](CCCNC(=N)N)C(=O)N[C@H](CCCNC(=N)N)C(N)=O)C(C)C [peptide 14D] (H-[dW][dK][dI][dV][dF][dW][dW][dR][dR]-NH2),>50
2,CC[C@@H](C)[C@@H](NC(=O)[C@@H](CCCCN)NC(=O)[C@H](N)Cc1c[nH]c2ccccc12)C(=O)N[C@H](CO)C(=O)N[C@H](Cc1ccccc1)C(=O)N[C@H](Cc1c[nH]c2ccccc12)C(=O)N[C@H](Cc1c[nH]c2ccccc12)C(=O)N[C@H](CCCNC(=N)N)C(=O)N[C@H](CCCNC(=N)N)C(N)=O [wkisfwwrr] (H-[dW][dK][dI][dS][dF][dW][dW][dR][dR]-NH2; N-terminus assumed),20
3,CC[C@@H](C)[C@@H](NC(=O)[C@@H](CCCCN)NC(=O)[C@H](N)Cc1c[nH]c2ccccc12)C(=O)N[C@@H](C(=O)N[C@H](Cc1ccccc1)C(=O)NCC(=O)N[C@H](Cc1c[nH]c2ccccc12)C(=O)N[C@H](CCCNC(=N)N)C(=O)N[C@H](CCCNC(=N)N)C(N)=O)C(C)C [wkivfGwrr] (H-[dW][dK][dI][dV][dF]G[dW][dR][dR]-NH2; N-terminus assumed),20
4,CC[C@@H](C)[C@@H](NC(=O)[C@@H](CCCCN)NC(=O)[C@H](N)Cc1c[nH]c2ccccc12)C(=O)N[C@@H](C(=O)N[C@H](Cc1ccccc1)C(=O)N[C@H](CC(=O)O)C(=O)N[C@H](Cc1c[nH]c2ccccc12)C(=O)N[C@H](CCCNC(=N)N)C(=O)N[C@H](CCCNC(=N)N)C(N)=O)C(C)C [wkivfdwrr] (H-[dW][dK][dI][dV][dF][dD][dW][dR][dR]-NH2),20
5,CC[C@@H](C)[C@@H](NC(=O)[C@@H](CCCCN)NC(=O)[C@H](N)Cc1c[nH]c2ccccc12)C(=O)N[C@@H](C(=O)N[C@H](Cc1ccccc1)C(=O)N[C@H](CC(N)=O)C(=O)N[C@H](Cc1c[nH]c2ccccc12)C(=O)N[C@H](CCCNC(=N)N)C(=O)N[C@H](CCCNC(=N)N)C(N)=O)C(C)C [wkivfnwrr] (H-[dW][dK][dI][dV][dF][dN][dW][dR][dR]-NH2; N-terminus assumed),20
